Measurements reported in ChEMBL document CHEMBL1143686, “Alkylation potency and protein specificity of aromatic urea derivatives and bioisosteres as potential irreversible antagonists of the colchicine-binding site” (2007).
Activity calls are given as the source filed them. The calls are words filed in the database; no cut-off is given here.

Key:
MCF7 = assay: Growth inhibition of human MCF7 cells after 48 hrs; format: functional; details: MCF7, 48 h
HT-29 = assay: Growth inhibition of human HT29 cells after 48 hrs; format: functional; details: HT-29, 48 h
M21 [1] = assay: Growth inhibition of human M21 cells after 48 hrs; format: functional; details: M21, 48 h
M21 [2] = assay: Alkylation of beta tubulin in human M21 cells at 25 uM after 16 to 24 hrs; format: functional, cell-based
M21 [3] = assay: Alkylation of beta tubulin in human M21 cells at 25 uM; format: functional, cell-based
M21 [4] = assay: Cell cycle arrest by accumulation at G2/M phase in human M21 cells after 24 hrs by flow cytometry; format: functional, cell-based

| GI50 (MCF7) [µM] | GI50 (HT-29) [µM] | SMILES | GI50 (M21 [1]) [µM] | Activity (M21 [2]) | Activity (M21 [3]) | Activity (M21 [4]) |
| --- | --- | --- | --- | --- | --- | --- |
| 0.002 | 0.002 | CC[C@]1(O)C[C@@H]2CN(CCc3c([nH]c4ccccc34)[C@@](C(=O)OC)(c3cc4c(cc3OC)N(C)[C@H]3[C@@](O)(C(=O)OC)[C@H](OC(C)=O)[C@]5(CC)C=CCN6CC[C@]43[C@@H]65)C2)C1 [VINBLASTINE] | 0.01 |  |  |  |
| 21 | 16 | O=C(NCCCl)NC1c2ccccc2-c2ccccc21 | 38 |  |  |  |
| 44 | 16 | Cc1ccc(NC(=O)NCCCl)cc1 | 33 |  |  |  |
| 5.5 | 6.9 | Cc1ccc(NC(=O)NC(=O)CCl)cc1C | 4.3 |  | inactive |  |
| 6 | 1.9 | O=C(NCCCl)Nc1ccc(I)cc1 | 3.9 |  |  |  |
| 5 | 13 | O=C(CCl)NC(=O)Nc1ccc2c(c1)Cc1ccccc1-2 | 4.8 |  | inactive |  |
| 7.5 | 10 | Cc1ccc(NC(=O)NC(=O)CCl)cc1 | 4.9 |  | inactive |  |
| 4.8 | 8.6 | O=C(CCl)NC(=O)NC1c2ccccc2-c2ccccc21 | 3.4 |  | inactive |  |
| 2.2 | 3.2 | O=C(CCl)NC(=O)Nc1cccc2c1CCC2 | 4.9 |  | inactive |  |
|  | 67 | Cc1ccc(C)c(NC(=O)NCCCl)c1 |  |  |  |  |
| 6.5 | 6 | Cc1cccc(NC(=O)NC(=O)CCl)c1C | 4.7 |  | inactive |  |
|  | 39 | Cc1cccc(NC(=O)NCCCl)c1 | 81 |  |  |  |
| 4 | 7 | O=C(CCl)NC(=O)Nc1ccc2c(c1)CCC2 | 1.7 |  | inactive |  |
| 17 | 4.7 | O=C(NCCCl)Nc1ccc2c(c1)CCC2 | 8.9 |  |  | Active |
| 6.2 | 2.3 | CC(C)(C)c1ccc(NC(=O)NCCCl)cc1 | 4.3 |  |  |  |
|  | 78 | Cc1ccc(NC(=O)NCCCl)c(C)c1 |  |  |  |  |
| 12 | 4.2 | Cc1ccc(NC(=O)NCCCl)cc1C | 8.4 |  |  |  |
| 7.4 | 6.6 | Cc1cccc(C)c1NC(=O)NC(=O)CCl | 6.3 |  | inactive |  |
| 5.8 | 6.7 | Cc1ccc(C)c(NC(=O)NC(=O)CCl)c1 | 3.8 |  | inactive |  |
| 31 | 8.5 | Cc1cc(C)cc(NC(=O)NCCCl)c1 | 16 |  |  |  |
| 4.8 | 3.3 | CC(C)(C)c1ccc(NC(=O)NC(=O)CCl)cc1 | 1.1 |  |  |  |
|  | 95 | O=C(NCCCl)Nc1cccc2c1CCC2 |  |  |  |  |
| 8.6 | 11 | Cc1ccc(NC(=O)NC(=O)CCl)c(C)c1 | 7.4 |  | inactive |  |
| 10.6 | 9.8 | Cc1ccccc1NC(=O)NC(=O)CCl | 6.9 |  | inactive |  |
| 0.009 | 0.004 | COc1cc2c(c(OC)c1OC)-c1ccc(OC)c(=O)cc1[C@@H](NC(C)=O)CC2 [COLCHICINE] | 0.015 |  |  |  |
| 6.1 | 9 | Cc1cccc(NC(=O)NC(=O)CCl)c1 | 4 |  | inactive |  |
| 4.3 | 6.1 | Cc1cc(C)cc(NC(=O)NC(=O)CCl)c1 | 3.7 |  | inactive |  |
| 6.8 | 6.9 | O=C(CCl)NC(=O)Nc1ccc(I)cc1 | 4.2 |  |  |  |
| 0.054 | 0.015 | CC(=O)O[C@H]1C(=O)[C@@]2(C)[C@H]([C@H](OC(=O)c3ccccc3)[C@]3(O)C[C@H](OC(=O)[C@H](O)[C@@H](NC(=O)c4ccccc4)c4ccccc4)C(C)=C1C3(C)C)[C@]1(OC(C)=O)CO[C@@H]1C[C@@H]2O [PACLITAXEL] | 0.037 |  |  |  |
| 14.2 | 2.3 | O=C(NCCCl)Nc1ccc2c(c1)Cc1ccccc1-2 | 5.1 |  |  | Active |

| SMILES | GI50 (MCF7) [µM] | GI50 (HT-29) [µM] | GI50 (M21 [1]) [µM] | Activity (M21 [2]) | Activity (M21 [3]) | Activity (M21 [4]) |
| --- | --- | --- | --- | --- | --- | --- |
| CC(C)(C)c1ccc(NC2=NCCO2)cc1 | 3 | 1.5 | 2.4 | Active |  |  |
| Cc1cc(C)cc(NC2=NCCO2)c1 | 19 | 7 | 12 |  |  |  |
| Cc1ccc(NC2=NCCO2)c(C)c1 | 23 | 15 | 26 |  | inactive |  |
| Cc1cccc(C)c1/N=C1/NCCO1 | 23 | 15 | 27 |  |  |  |
| Cc1ccccc1NC1=NCCO1 | 21 | 13 | 18 |  |  |  |
| c1cc2c(c(NC3=NCCO3)c1)CCC2 | 26 | 16 | 30 |  |  |  |
| Ic1ccc(NC2=NCCO2)cc1 | 2.9 | 1.3 | 2 | Active |  |  |
| Cc1cccc(NC2=NCCO2)c1 | 52 | 33 | 61 |  |  |  |
| Cc1ccc(C)c(NC2=NCCO2)c1 | 72 | 44 | 73 |  |  |  |
| c1cc2c(cc1NC1=NCCO1)CCC2 | 9.1 | 4.9 | 8.1 | Active |  | Active |
| Cc1ccc(NC2=NCCO2)cc1 | 27 | 13 | 22 |  |  |  |
| Cc1ccc(NC2=NCCO2)cc1C | 5.7 | 2.7 | 5.1 | Active |  |  |
| c1ccc2c(c1)-c1ccccc1C2NC1=NCCO1 | 11 | 15 | 17 |  |  |  |
| Cc1cccc(NC2=NCCO2)c1C | 15 | 9 | 17 |  | inactive |  |
